Test system: flies, bees, wasps, and other winged insects
Experiment: vaporized 1,4-DMN treatment of a closed potato storage facility
Format: in vivo
Protocol: The concentration of vapor of 1,4-DMN in the atmosphere of the storage facility was rather low. […] In the experiment, 500 milliliters and 188 milliliters of 1,4-DMN were vaporized and used. Both concentrations were effective. The facility was in a closed state for about 48 hours.
The ventilation system of the storage facility had been shut off so that there was no fresh air entering the building and the building was not being evacuated during the 1,4-DMN vapor treatment. The effect of the 1,4-DMN on insects within the storage facility was fairly immediate with substantially all the insects being killed within about 24 hours. In regions or facilities with dangerous insects, or where there is a large concentration of less-dangerous insects, such as bees, wasps and the like, which would create risks to workers, a closed facility may be treated to make it safe. Dangerous insects such as spiders, scorpions and the like may also effectively be treated in this manner with 1,4-DMN.

Cc1ccc(C)c2ccccc12 [1,4-DMN, 1,4-dimethylnaphthalene]
time until substantially all the insects were killed (1,4-DMN vapor treatment, closed storage facility without ventilation): ≤ 24 h
insecticidal effectiveness of vapor treatment (188 milliliters of 1,4-DMN vaporized, head space about 9,000 cubic feet, closed about 48 hours): effective
insecticidal effectiveness of vapor treatment (500 milliliters of 1,4-DMN vaporized, head space about 9,000 cubic feet, closed about 48 hours): effective
effect of vaporized 1,4-DMN on insects contained within a potato storage facility (vapor, closed facility of approximately 10,000 cubic feet, head space about 9,000 cubic feet, closed about 48 hours, ventilation shut off): killed or placed in a state of stupor
